Test results reported in patent publication US20260216152A1, “Combinations Comprising Benzodioxol as GLP-1R Agonists for Use in the Treatment of NASH/NAFLD and Related Diseases” (Pfizer Inc., priority 2019, published 2026).

Tests used:
[1] = tested on: human ACC isozymes; assay: Inhibition of human ACC isozymes, incorporation of [14C]-carbonate into [14C]-malonyl-CoA; type: biochemical; conditions: saturating concentrations of ATP
[2] = tested on: rat ACC isozymes; assay: Inhibition of rat ACC isozymes, incorporation of [14C]-carbonate into [14C]-malonyl-CoA; type: biochemical; conditions: saturating concentrations of ATP
[3] = tested on: liver malonyl-CoA; assay: Liver malonyl-CoA in rats; type: in vivo
[4] = Western diet fed Sprague Dawley rats, ACCi and DGAT2i as monotherapy and in combination (FIG. 10-18); type: in vivo
Description: (§1) It appears that the administration of an ACC inhibitor may have positive effects to lower hepatic TGs and potentially other beneficial effects on treatment of NASH.

[5] = Circulating TGs in human subjects; type: in vivo
Description: as §1

[6] = tested on: hepatic DNL; conditions: Phase 1 study, healthy adult subjects; cited from earlier work
[7] = in vivo; conditions: rat
[8] = in vivo; conditions: monkey
[9] = molecular target: T1, recombinant human DGAT1 (hDGAT1) (Homo sapiens, UniProt O75907); assay: Selectivity by biochemical assessment versus hDGAT1; conditions: in vitro
T1 sequence (O75907 1-488): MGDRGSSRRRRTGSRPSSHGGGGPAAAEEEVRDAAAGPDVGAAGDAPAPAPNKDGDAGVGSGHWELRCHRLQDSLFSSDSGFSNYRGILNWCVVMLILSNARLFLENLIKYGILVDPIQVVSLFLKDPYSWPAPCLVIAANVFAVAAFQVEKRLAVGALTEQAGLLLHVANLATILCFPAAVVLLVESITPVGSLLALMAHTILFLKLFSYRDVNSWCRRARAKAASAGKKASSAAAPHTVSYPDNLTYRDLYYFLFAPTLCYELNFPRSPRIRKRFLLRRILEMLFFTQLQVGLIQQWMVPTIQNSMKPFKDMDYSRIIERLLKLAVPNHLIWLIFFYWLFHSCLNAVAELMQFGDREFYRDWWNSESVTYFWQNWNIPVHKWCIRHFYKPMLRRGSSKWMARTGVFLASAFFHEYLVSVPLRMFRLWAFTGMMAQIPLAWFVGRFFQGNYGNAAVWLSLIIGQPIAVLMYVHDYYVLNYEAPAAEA
Description: (§2) (S)-2-(5-((3-ethoxypyridin-2-yl)oxy)pyridin-3-yl)-N-(tetrahydrofuran-3-yl)pyrimidine-5-carboxamide is an oral, small molecule DGAT2 inhibitor that is postulated to decrease hepatic triglyceride (TG) synthesis and hepatic lipid burden in NAFLD and NASH.

[10] = molecular target: monoacylglycerol acyltransferase 2 (MGAT2) (Homo sapiens, UniProt Q3SYC2); assay: Selectivity by biochemical assessment versus MGAT2; conditions: in vitro
Description: as §2

[11] = molecular target: T2, MGAT3 (Homo sapiens, UniProt Q86VF5); assay: Selectivity by biochemical assessment versus MGAT3; conditions: in vitro
T2 sequence (Q86VF5 1-341): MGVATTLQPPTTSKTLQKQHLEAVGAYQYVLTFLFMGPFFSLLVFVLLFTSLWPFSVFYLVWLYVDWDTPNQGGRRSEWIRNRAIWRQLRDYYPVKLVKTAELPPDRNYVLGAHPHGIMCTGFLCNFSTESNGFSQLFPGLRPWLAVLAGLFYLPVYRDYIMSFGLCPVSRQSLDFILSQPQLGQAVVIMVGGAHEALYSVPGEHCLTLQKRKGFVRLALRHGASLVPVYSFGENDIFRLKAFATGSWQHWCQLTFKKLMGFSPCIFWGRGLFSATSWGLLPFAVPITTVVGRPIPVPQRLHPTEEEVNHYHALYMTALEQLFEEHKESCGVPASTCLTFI
Description: as §2

[12] = molecular target: T3, mouse MGAT1 (Mus musculus, UniProt Q91ZV4); assay: Selectivity by biochemical assessment versus mouse MGAT1; conditions: in vitro
T3 sequence (Q91ZV4 1-335): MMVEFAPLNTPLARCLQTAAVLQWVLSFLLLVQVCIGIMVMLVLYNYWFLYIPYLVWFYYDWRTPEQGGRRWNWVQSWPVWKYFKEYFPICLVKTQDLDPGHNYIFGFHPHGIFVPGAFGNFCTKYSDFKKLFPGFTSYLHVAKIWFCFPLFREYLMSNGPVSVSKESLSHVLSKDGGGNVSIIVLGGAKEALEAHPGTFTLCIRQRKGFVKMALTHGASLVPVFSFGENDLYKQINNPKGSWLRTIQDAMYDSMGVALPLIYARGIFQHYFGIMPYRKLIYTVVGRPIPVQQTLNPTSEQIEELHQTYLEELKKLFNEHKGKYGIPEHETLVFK
Description: as §2

[13] = Plasma triacylglycerol in rats fed a sucrose-diet; type: in vivo
Description: as §2

[14] = Longer-term studies in western diet fed rats; type: in vivo
Description: as §2

[15] = tested on: fructose-induced steatosis; assay: Dietary fructose-feeding model with Sprague Dawley rats; type: in vivo
Description: [(1R,5S,6R)-3-{2-[(2S)-2-methylazetidin-1-yl]-6-(trifluoromethyl)pyrimidin-4-yl}-3-azabicyclo[3.1.0]hex-6-yl]acetic acid is a potent reversible inhibitor of human KHK-C The fructose, not glucose, component of dietary sugar is unique in its ability to promote features of metabolic syndrome, including steatosis, insulin resistance, and obesity.

[16] = Thermodynamic stability of crystal forms versus water activity; type: physicochemical; conditions: ambient temperature; 0.2 = 20% RH
Description: Form 1 of Example ACCi is anhydrous and is thermodynamically stable below a water activity of about 0.2 (20% RH) at ambient temperature. Characteristic PXRD peaks of Form 1 of Example ACCi, expressed as 2θ+0.2° 2θ are at 9.6, 10.7, and 11.3.
Form 2 of Example ACCi is a trihydrate and is thermodynamically stable above a water activity of about 0.2 at ambient temperature and 20% RH. Characteristic PXRD peaks of Form 2 of Example ACCi, expressed as 2θ+0.2° 2θ are at 8.4, 9.0, 10.5, 15.0, and 24.7.

[17] = tested on: circulating FGF19; assay: Circulating FGF19 levels after single and multiple doses; type: in vivo
Description: Pharmacological activation of […] has been proposed as a target for the treatment of NASH (Cariou 2008, Porez et al 2012). […] The nuclear receptor FXR, also known as the Bile Acid Receptor (BAR; NR1H4), is responsible for modulating bile acid production, conjugation, and elimination.

monoacylglycerol acyltransferase 2 (MGAT2), sequence (Q3SYC2 whole entry): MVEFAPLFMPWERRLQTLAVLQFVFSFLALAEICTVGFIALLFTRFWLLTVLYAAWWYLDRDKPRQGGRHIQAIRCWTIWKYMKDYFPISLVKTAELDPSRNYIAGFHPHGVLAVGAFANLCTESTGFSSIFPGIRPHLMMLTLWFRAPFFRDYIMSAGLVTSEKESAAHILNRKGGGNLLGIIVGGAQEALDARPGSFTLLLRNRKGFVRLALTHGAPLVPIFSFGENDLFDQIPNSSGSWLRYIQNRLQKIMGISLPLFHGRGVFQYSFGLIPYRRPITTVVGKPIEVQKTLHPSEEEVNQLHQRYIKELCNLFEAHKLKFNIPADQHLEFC

In the case of `COc1cc(C(=O)N2CCC3(CC2)CC(=O)c2c(cnn2C(C)C)C3)cc(-c2ccc(C(=O)O)cc2)n1` [Example ACCi, 4-(4-(1-isopropyl-7-oxo-1,4,6,7-tetrahydrospiro[indazole-5,4′-piperidine]-1′-carbonyl)-6-methoxypyridin-2-yl)benzoic Acid], the “inhibition of incorporation of [14C]-carbonate into [14C]-malonyl-CoA” value [1] is reported as “inhibited incorporation of [^14C]-carbonate into [^14C]-malonyl-CoA in a concentration-dependent manner”, the “inhibition of incorporation of [14C]-carbonate into [14C]-malonyl-CoA” value [2] is reported as “inhibited incorporation of [^14C]-carbonate into [^14C]-malonyl-CoA in a concentration-dependent manner” and the “liver malonyl-CoA” value [3] is reported as “dose and free plasma concentration-dependent reductions in liver malonyl-CoA”. For the same compound, the “circulating TGs (generally measured from plasma)” value [4] was “elevations in circulating TGs”, the “circulating TGs” value [5] was “elevations in circulating TGs” and the “hepatic DNL” value [6] was “suppress hepatic DNL”. The Kp [7] was no less than 100 and the Kp [8] was no less than 100.

With `CCOc1cccnc1Oc1cncc(-c2ncc(C(=O)N[C@H]3CCOC3)cn2)c1` [Example DGAT2i, (S)-2-(5-((3-ethoxypyridin-2-yl)oxy)pyridin-3-yl)-N-(tetrahydrofuran-3-yl)pyrimidine-5-carboxamide] the “selectivity versus hDGAT1” value [9] was greater than 2000 fold, the “selectivity versus MGAT2” value [10] was greater than 2000 fold and the “selectivity versus MGAT3” value [11] was greater than 2000 fold. The “selectivity versus mouse MGAT1” value [12] was greater than 2000 fold, the plasma triacylglycerol [13] was “robust, dose-dependent reduction of plasma triacylglycerol” and the hepatic lipid accumulation [14] was “reduced”. The plasma triacylglycerol [14] was “reduced”.

With `C[C@H]1CCN1c1nc(N2C[C@@H]3[C@@H](CC(=O)O)[C@@H]3C2)cc(C(F)(F)F)n1` [Example KHKi, [(1R,5S,6R)-3-{2-[(2S)-2-methylazetidin-1-yl]-6-(trifluoromethyl)pyrimidin-4-yl}-3-azabicyclo[3.1.0]hex-6-yl]Acetic acid] the “incidence of fructose-induced steatosis” value [15] was “reduced the incidence of fructose-induced steatosis”.

For `COc1cc(C(=O)N2CCC3(CC2)CC(=O)c2c(cnn2C(C)C)C3)cc(-c2ccc(C(=O)O)cc2)n1` [Form 1 of Example ACCi], the “water activity at which the form is thermodynamically stable” value [16] was less than 0.2.

With `COc1cc(C(=O)N2CCC3(CC2)CC(=O)c2c(cnn2C(C)C)C3)cc(-c2ccc(C(=O)O)cc2)n1` [Form 2 of Example ACCi] the “water activity at which the form is thermodynamically stable” value [16] was greater than 0.2.

For `O=C(O)c1cc(F)c2nc(N3C4CC[C@H]3CC(OCc3c(-c5ccccc5OC(F)(F)F)noc3C3CC3)C4)sc2c1` (stereo partly drawn) [Tropifexor, 2-[(1R,3R,5S)-3-({5-cyclopropyl-3-[2-(trifluoromethoxy)phenyl]-1,2-oxazol-4-yl}methoxy)-8-azabicyclo[3.2.1]octan-8-yl]-4-fluoro-1,3-benzothiazole-6-carboxylic acid], the “circulating FGF19 levels” value [17] was “robust, dose-dependent increase in circulating FGF19 levels”.
